According to ChEMBL document CHEMBL4715829, “Heterodimeric Rifampicin-Tobramycin conjugates break intrinsic resistance of Pseudomonas aeruginosa to doxycycline and chloramphenicol in vitro and in a Galleria mellonella in vivo model” (Eur J Med Chem, 2019):

What was measured:
Acinetobacter baumannii [1] = test: Antibacterial activity against Acinetobacter baumannii ATCC 17978 assessed as fractional inhibitory concentration index in presence of doxycycline incubated for 18 hrs by broth microdilution assay; assay type: functional
Escherichia coli [2] = test: Antibacterial activity against Escherichia coli ATCC 25922 assessed as potentiation of doxycycline-induced antibacterial activity by measuring doxycycline MIC at 10 uM incubated for 18 hrs in presence of doxycycline by broth microdilution assay (reference value: 0.5 ug/ml); assay type: functional
Pseudomonas aeruginosa [3] = test: Potentiation of doxycycline-induced antibacterial activity against Pseudomonas aeruginosa PAO1 incubated for 18 hrs in presence of doxycycline by broth microdilution assay; assay type: functional, organism-based; settings: dose 1-32 µg/ml
Pseudomonas aeruginosa [4] = test: Antibacterial activity against Pseudomonas aeruginosa 260-97103 assessed as reduction in bacterial growth incubated for 18 hrs by broth microdilution assay; assay type: functional
Pseudomonas aeruginosa [5] = test: Antibacterial activity against Pseudomonas aeruginosa PAO1 assessed as reduction in bacterial growth by measuring tigecycline MIC at <=10 uM in presence of tigecycline incubated for 18 hrs by broth microdilution assay based checkerboard assay (reference value: 4 microg/ml); assay type: functional; settings: dose microM <=10
Klebsiella pneumoniae [6] = test: Antibacterial activity against Klebsiella pneumoniae ATCC 16381 assessed as potentiation of chloramphenicol-induced antibacterial activity by measuring chloramphenicol MIC at 10 uM incubated for 18 hrs in presence of chloramphenicol by broth microdilution assay (reference value: 1024 ug/ml); assay type: functional
Pseudomonas aeruginosa [7] = test: Antibacterial activity against Pseudomonas aeruginosa 101885 assessed as fractional inhibitory concentration index in presence of chloramphenicol incubated for 18 hrs by broth microdilution assay; assay type: functional
Pseudomonas aeruginosa [8] = test: Antibacterial activity against Pseudomonas aeruginosa PAO1 assessed as reduction in bacterial growth by measuring tobramycin MIC at <=10 uM in presence of tobramycin incubated for 18 hrs by broth microdilution assay based checkerboard assay (reference value: 1 microg/ml); assay type: functional; settings: dose microM <=10
Pseudomonas aeruginosa [9] = test: Antibacterial activity against Pseudomonas aeruginosa PAO1 assessed as fractional inhibitory concentration index in presence of Doxycycline incubated for 18 hrs by broth microdilution assay based checkerboard assay; assay type: functional
Acinetobacter baumannii [10] = test: Antibacterial activity against Acinetobacter baumannii ATCC 17978 assessed as potentiation of doxycycline-induced antibacterial activity by measuring doxycycline MIC at 10 uM incubated for 18 hrs in presence of doxycycline by broth microdilution assay (reference value: 0.25 ug/ml); assay type: functional
Enterobacter cloacae = test: Antibacterial activity against Enterobacter cloacae ATCC 117029 assessed as reduction in bacterial growth incubated for 18 hrs by broth microdilution assay; assay type: functional
Pseudomonas aeruginosa [11] = test: Antibacterial activity against Pseudomonas aeruginosa PAO1 assessed as fractional inhibitory concentration index in presence of Linezolid incubated for 18 hrs by broth microdilution assay based checkerboard assay; assay type: functional
Pseudomonas aeruginosa [12] = test: Potentiation of doxycycline-induced antibacterial activity against Pseudomonas aeruginosa 260-97103 incubated for 18 hrs in presence of doxycycline by broth microdilution assay; assay type: functional, organism-based; settings: dose 1-32 µg/ml
Pseudomonas aeruginosa [13] = test: Antibacterial activity against Pseudomonas aeruginosa PAO1 assessed as reduction in bacterial growth by measuring colistin MIC at <=10 uM in presence of colistin incubated for 18 hrs by broth microdilution assay based checkerboard assay (reference value: 1 microg/ml); assay type: functional; settings: dose microM <=10
Pseudomonas aeruginosa [14] = test: Antibacterial activity against Pseudomonas aeruginosa PAO1 assessed as fractional inhibitory concentration index in presence of Tigecycline incubated for 18 hrs by broth microdilution assay based checkerboard assay; assay type: functional
Klebsiella pneumoniae [15] = test: Antibacterial activity against Klebsiella pneumoniae ATCC 16381 assessed as fractional inhibitory concentration index in presence of doxycycline incubated for 18 hrs by broth microdilution assay; assay type: functional
Pseudomonas aeruginosa [16] = test: Potentiation of chloramphenicol-induced antibacterial activity against Pseudomonas aeruginosa 260-97103 incubated for 18 hrs in presence of chloramphenicol by broth microdilution assay; assay type: functional, organism-based; settings: dose 1-32 µg/ml
Klebsiella pneumoniae [17] = test: Antibacterial activity against Klebsiella pneumoniae ATCC 16381 assessed as fractional inhibitory concentration index in presence of chloramphenicol incubated for 18 hrs by broth microdilution assay; assay type: functional
Escherichia coli [18] = test: Antibacterial activity against Escherichia coli ATCC 25922 assessed as reduction in bacterial growth incubated for 18 hrs by broth microdilution assay; assay type: functional
Pseudomonas aeruginosa [19] = test: Antibacterial activity against Pseudomonas aeruginosa PAO1 assessed as fractional inhibitory concentration index in presence of Chloramphenicol incubated for 18 hrs by broth microdilution assay based checkerboard assay; assay type: functional
Streptococcus pneumoniae = test: Antibacterial activity against Streptococcus pneumoniae ATCC 49619 assessed as reduction in bacterial growth incubated for 18 hrs by broth microdilution assay; assay type: functional
Pseudomonas aeruginosa [20] = test: Antibacterial activity against Pseudomonas aeruginosa 100036 assessed as reduction in bacterial growth incubated for 18 hrs by broth microdilution assay; assay type: functional
Escherichia coli [21] = test: Antibacterial activity against Escherichia coli ATCC 25922 assessed as fractional inhibitory concentration index in presence of chloramphenicol incubated for 18 hrs by broth microdilution assay; assay type: functional
Pseudomonas aeruginosa [22] = test: Antibacterial activity against Pseudomonas aeruginosa 114228 assessed as fractional inhibitory concentration index in presence of doxycycline incubated for 18 hrs by broth microdilution assay; assay type: functional
Pseudomonas aeruginosa [23] = test: Antibacterial activity against Pseudomonas aeruginosa 114228 assessed as reduction in bacterial growth incubated for 18 hrs by broth microdilution assay; assay type: functional
Pseudomonas aeruginosa [24] = test: Potentiation of doxycycline-induced antibacterial activity against Pseudomonas aeruginosa 264-101354 incubated for 18 hrs in presence of doxycycline by broth microdilution assay; assay type: functional, organism-based; settings: dose 1-32 µg/ml
Pseudomonas aeruginosa [25] = test: Antibacterial activity against Pseudomonas aeruginosa 264-101354 assessed as reduction in bacterial growth incubated for 18 hrs by broth microdilution assay; assay type: functional
Pseudomonas aeruginosa [26] = test: Antibacterial activity against wild type Pseudomonas aeruginosa PAO1 assessed as reduction in bacterial growth incubated for 18 hrs by broth microdilution assay; assay type: functional
[27] = system: Staphylococcus epidermidis; test: Antibacterial activity against methicillin-resistance Staphylococcus epidermidis CAN-ICU 61589 (CAZ>32) assessed as reduction in bacterial growth incubated for 18 hrs by broth microdilution assay; assay type: functional
Staphylococcus aureus = test: Antibacterial activity against methicillin-resistance Staphylococcus aureus ATCC 33592 assessed as reduction in bacterial growth incubated for 18 hrs by broth microdilution assay; assay type: functional
Pseudomonas aeruginosa [28] = test: Antibacterial activity against Pseudomonas aeruginosa 101885 assessed as reduction in bacterial growth incubated for 18 hrs by broth microdilution assay; assay type: functional
Pseudomonas aeruginosa [29] = test: Antibacterial activity against Pseudomonas aeruginosa 100036 assessed as fractional inhibitory concentration index in presence of doxycycline incubated for 18 hrs by broth microdilution assay; assay type: functional

## CO[C@H]1/C=C/O[C@@]2(C)Oc3c(C)c(O)c4c(O)c(c(/C=N/N5CCN(Cc6cn(CCCCCCCCCCCCO[C@@H]7[C@@H](O[C@H]8O[C@H](CO)[C@@H](O)[C@H](N)[C@H]8O)[C@H](N)C[C@H](N)[C@H]7O[C@H]7O[C@H](CN)[C@@H](O)C[C@H]7N)nn6)CC5)c(O)c4c3C2=O)NC(=O)/C(C)=C\C=C\[C@H](C)[C@H](O)[C@@H](C)[C@@H](O)[C@@H](C)[C@H](OC(C)=O)[C@@H]1C.O=C(O)C(F)(F)F.O=C(O)C(F)(F)F.O=C(O)C(F)(F)F.O=C(O)C(F)(F)F.O=C(O)C(F)(F)F
Acinetobacter baumannii [1]
  fractional inhibitory concentration index (FICI): 1.25
Escherichia coli [2]
  MIC: 0.25 µg/mL
Pseudomonas aeruginosa [3]
  Activity: Dose-dependent effect
Pseudomonas aeruginosa [4]
  MIC: > 128 µg/mL
Pseudomonas aeruginosa [5]
  MIC: 2 µg/mL
Klebsiella pneumoniae [6]
  MIC: 256 µg/mL
Pseudomonas aeruginosa [7]
  fractional inhibitory concentration index (FICI): 0.07
Pseudomonas aeruginosa [8]
  MIC: 1 µg/mL
Pseudomonas aeruginosa [9]
  fractional inhibitory concentration index (FICI): 0.09
Acinetobacter baumannii [10]
  MIC: 0.25 µg/mL
Enterobacter cloacae
  MIC: 16 µg/mL
Pseudomonas aeruginosa [11]
  fractional inhibitory concentration index (FICI): 0.28
Pseudomonas aeruginosa [12]
  Activity: Dose-dependent effect
Pseudomonas aeruginosa [13]
  MIC: 0.25 µg/mL
Pseudomonas aeruginosa [14]
  fractional inhibitory concentration index (FICI): 0.51
Klebsiella pneumoniae [15]
  fractional inhibitory concentration index (FICI): <0.516
Pseudomonas aeruginosa [16]
  Activity: Dose-dependent effect
Klebsiella pneumoniae [17]
  fractional inhibitory concentration index (FICI): <0.281
Escherichia coli [18]
  MIC: 16 µg/mL
Pseudomonas aeruginosa [19]
  fractional inhibitory concentration index (FICI): 0.09
Streptococcus pneumoniae
  MIC: 8 µg/mL
Pseudomonas aeruginosa [20]
  MIC: 256 µg/mL
Escherichia coli [21]
  fractional inhibitory concentration index (FICI): 0.625
Pseudomonas aeruginosa [22]
  fractional inhibitory concentration index (FICI): <0.187
Pseudomonas aeruginosa [23]
  MIC: > 128 µg/mL
Pseudomonas aeruginosa [24]
  Activity: Dose-dependent effect
Pseudomonas aeruginosa [25]
  MIC: 256 µg/mL
Pseudomonas aeruginosa [26]
  MIC: 512 µg/mL
[27]
  MIC: 8 µg/mL
Staphylococcus aureus
  MIC: > 32 µg/mL
Pseudomonas aeruginosa [28]
  MIC: 256 µg/mL
Pseudomonas aeruginosa [29]
  fractional inhibitory concentration index (FICI): 0.07
